According to paper PMC12214830, “The human RIF1-Long isoform interacts with BRCA1 to promote recombinational fork repair under DNA replication stress” (Nature Communications, 2025):

Experiments:
Format in all cases: cell-based, human
HCT116 cells = assay: colony formation (clonogenic survival) assay, HCT116 cells
Procedure: For HCT116-derived cells, cells were plated in 6-well plates at 250 cells/well, in triplicate for each drug concentration. Cells were incubated with drugs for 24 h, after which drug-containing medium was replaced with drug-free medium. Seven days later colony counting was performed using a Nikon Eclipse TS100 microscope. For the IR sensitivity test, cells were plated following the same procedure, then irradiated at desired doses and incubated for 7 days before colony counting. Clusters with more than 20 cells were counted as colonies. Mean and standard error of each triplicate was calculated.

[1] = test system: RIF1-BRCA1 proximity in RPE-1 cells; assay: RIF1-BRCA1 proximity ligation assay, RPE-1 cells
Procedure: Proximity ligation assays were performed using the Duolink In Situ PLA Fluorescence Protocol (Sigma-Aldrich, DUO92101) following the manufacturer’s instruction. Cells were grown on glass coverslips and treated as indicated for specific experiments. Cells were then permeabilized with 0.5% TritonX-100 in PBS for 10 min on ice, and fixed with 3% formaldehyde, 2% sucrose in PBS for 10 min at room temperature (RT). After fixation, coverslips were blocked in 3% BSA in PBS for 1 h at RT and incubated with primary antibodies (anti-RIF1, Bethel laboratories A300-568A, 1:1000 dilution; anti-BRCA1, Santa Cruz Biotechnologies, sc-6954, 1:200 dilution), for 1 h at RT in a humidity chamber. Primary antibodies were then washed off with PLA washing buffer A supplied in the Duolink In Situ PLA kit. Coverslips were next incubated sequentially with PLA Probes (1 h at 37 °C), ligation solution (30 min at 37 °C) and amplification solution (100 min at 37 °C), with washes by washing buffer A in between each step. At the end of incubation, coverslips were washed with washing buffer B supplied in the Duolink In Situ PLA kit. Coverslips were then mounted on glass slides with PLA Mounting medium with DAPI. Images were captured by fluorescence microscopy (Zeiss Axio Imager). PLA foci number in each nucleus were analysed by CellProfiler Software[74] with a custom-made pipeline.
For EdU labelling combined with proximity ligation assay, cells were labelled with 10 µM EdU for 15 min, washed free of EdU and next incubated with medium containing 4 mM HU medium for 4 h. Cells were then permeabilized, fixed and subjected to RIF1-BRCA1 PLA procedures. After all PLA steps, EdU detection was performed following manufacturer’s instructions in the Click-iT EdU Imaging Kit (Invitrogen, C10640).
For proximity ligation assays and immunofluorescence signal intensity measurements, when comparing between two samples, statistical significance of differences was calculated by Mann-Whitney test for non-parametric distributions using GraphPad Prism software (v.9). When comparing among three or more samples, p values were calculated by Kruskal-Wallis test for non-parametric distributions with Dunn’s multiple comparisons using GraphPad Prism software (v.9). For RIF1 foci formation analysis (Fig. 6B), p values were calculated by two-tailed Student’s t test. For nuclear BRCA1 intensity fold change analyses (Fig. 6C, D), p values were calculated by two-tailed one-sample t test using GraphPad Prism software (v.9). For RAD51 foci formation analyses (Fig. 7B, E and Supplementary Fig. 7B), p values were calculated by chi-square test. For HR Reporter assay analysis (Fig. 7G and Supplementary Fig. 7L), p values were calculated by two-tailed paired Student’s t test. For micronuclei frequency analysis (Fig. 7H), p values were calculated by one-tailed paired Student’s t test. All Student’s t tests were performed with Excel T.TEST function. Chi-square tests were performed with the online Chi-square test calculator at https://www.socscistatistics.com/tests/chisquare2/default2.aspx. Sample number n for all box-and-whisker plots and dot plots are listed in Supplementary Data 1.

RAD51 foci = RAD51 foci formation, HeLa cells; details: 24 h HU 4 mM
Procedure: Cells were grown on glass coverslips and treated as desired. Cells were then permeabilized with 0.5% TritonX-100 in PBS for 7 min on ice, and fixed with 4% w/v formaldehyde solution (Sigma HT5012) for 10 min at room temperature (RT). After fixation, coverslips were blocked with 3% BSA in PBS (RT, 1 h), incubated with primary antibodies (RT, 2 h), washed with PBS three times and incubated with secondary antibodies (RT, 1 h). […] Fluorescence signal intensities within each nucleus were analysed by CellProfiler software with custom-made pipelines. […]
For proximity ligation assays and immunofluorescence signal intensity measurements, when comparing between two samples, statistical significance of differences was calculated by Mann-Whitney test for non-parametric distributions using GraphPad Prism software (v.9). When comparing among three or more samples, p values were calculated by Kruskal-Wallis test for non-parametric distributions with Dunn’s multiple comparisons using GraphPad Prism software (v.9). For RIF1 foci formation analysis (Fig. 6B), p values were calculated by two-tailed Student’s t test. For nuclear BRCA1 intensity fold change analyses (Fig. 6C, D), p values were calculated by two-tailed one-sample t test using GraphPad Prism software (v.9). For RAD51 foci formation analyses (Fig. 7B, E and Supplementary Fig. 7B), p values were calculated by chi-square test. […]

RPA = assay: chromatin-bound RPA immunofluorescence, RPE-1 cells; details: HU 4 mM 24 h
Procedure: Cells were grown on glass coverslips and treated as desired. Cells were then permeabilized with 0.5% TritonX-100 in PBS for 7 min on ice, and fixed with 4% w/v formaldehyde solution (Sigma HT5012) for 10 min at room temperature (RT). After fixation, coverslips were blocked with 3% BSA in PBS (RT, 1 h), incubated with primary antibodies (RT, 2 h), washed with PBS three times and incubated with secondary antibodies (RT, 1 h). Primary antibodies used for immunofluorescence include anti-γH2A.X (20E3) (Cell Signalling Technology, 9718. 1:500); anti-RPA32/RPA2 (9H8) (Abcam, ab2175. 1:200); anti-RAD51 (H92) (Santa Cruz Biotechnology, sc-8349. 1:100); anti-BrdU (B44) (BD Biosciences, 347580. 1:100); Coverslips were then mounted on glass slides with mounting medium with DAPI. Images were captured by either standard (Zeiss Axio Imager) or confocal (Zeiss LSM-880) microscopy. Fluorescence signal intensities within each nucleus were analysed by CellProfiler software with custom-made pipelines. Co-localisation analyses were performed with custom-made CellProfiler pipelines. Briefly, nuclei were identified and used to create masks. […]

[2] = Fig S4F (repeat of 4E), 0h post-HU
[3] = Fig S4F (repeat of 4E), 4h post-HU
[4] = Fig S4F (repeat of 4E), 8h post-HU

Q: With NC(=O)NO [HU, hydroxyurea] as the molecule, how does the “colony survival, RIF1-L cells” value (HCT116 cells; HCT116 expressing only RIF1-L, versus RIF1-WT) read?
A: RIF1-L conferred resistance comparable to RIF1-WT

Q: What about the “colony survival, RIF1-S cells” value (HCT116 cells; HCT116 expressing only RIF1-S, versus RIF1-KO) of the same molecule?
A: exhibited hypersensitivity to these drugs similar to RIF1-KO cells

Q: And the “RIF1-BRCA1 proximity signal after HU removal” value ([1]; 4 h after HU removal)?
A: retained

Q: And the “RIF1-BRCA1 proximity signal after HU removal” value ([1]; 8 h post-release)?
A: declined to baseline level

Q: And the “RIF1-BRCA1 PLA foci per nucleus, mean” value ([1]; Fig 3B, HU 4 mM 3 h)?
A: 1.331

Q: What about the “RIF1-BRCA1 PLA foci per nucleus, median” value ([1]; Fig 3B, HU 4 mM 3 h) of the same molecule?
A: 1

Q: What about the “RIF1-BRCA1 PLA foci per nucleus, mean” value ([1]; Fig 3B, HU 24 h) of the same molecule?
A: 3.899

Q: What about the “RIF1-BRCA1 PLA foci per nucleus, median” value ([1]; Fig 3B, HU 24 h) of the same molecule?
A: 3

Q: And the “RIF1-BRCA1 PLA foci per nucleus, mean” value ([1]; Fig 3C, HU 4 mM 24 h)?
A: 2.024

Q: What about the “RIF1-BRCA1 PLA foci per nucleus, median” value ([1]; Fig 3C, HU 4 mM 24 h) of the same molecule?
A: 1

Q: And the “RIF1-BRCA1 PLA foci per nucleus, mean” value ([1]; Fig 4E, 0h post-HU)?
A: 1.913

Q: And the “RIF1-BRCA1 PLA foci per nucleus, median” value ([1]; Fig 4E, 0h post-HU)?
A: 1, 1, 1, 1

Q: And the “RIF1-BRCA1 PLA foci per nucleus, mean” value ([1]; Fig 4E, 4h post-HU)?
A: 1.712

Q: What about the “RIF1-BRCA1 PLA foci per nucleus, median” value ([1]; Fig 4E, 4h post-HU) of the same molecule?
A: 1, 1, 1, 1

Q: What about the “RIF1-BRCA1 PLA foci per nucleus, mean” value ([1]; Fig 4E, 8h post-HU) of the same molecule?
A: 0.946

Q: What about the “RIF1-BRCA1 PLA foci per nucleus, median” value ([1]; Fig 4E, 8h post-HU) of the same molecule?
A: 1, 1, 1, 1

Q: And the “RIF1-BRCA1 PLA foci per nucleus, mean” value ([1]; Fig 4F, HU 4 mM 24 h)?
A: 7.107

Q: What about the “RIF1-BRCA1 PLA foci per nucleus, median” value ([1]; Fig 4F, HU 4 mM 24 h) of the same molecule?
A: 5

Q: What about the “RIF1-BRCA1 PLA foci per nucleus, mean” value [1, 2] of the same molecule?
A: 0.786

Q: What about the “RIF1-BRCA1 PLA foci per nucleus, median” value [1, 2] of the same molecule?
A: 0, 0, 0, 0

Q: And the “RIF1-BRCA1 PLA foci per nucleus, mean” value [1, 3]?
A: 0.617

Q: What about the “RIF1-BRCA1 PLA foci per nucleus, median” value [1, 3] of the same molecule?
A: 0, 0, 0, 0

Q: What about the “RIF1-BRCA1 PLA foci per nucleus, mean” value [1, 4] of the same molecule?
A: 0.355

Q: What about the “RIF1-BRCA1 PLA foci per nucleus, median” value [1, 4] of the same molecule?
A: 0, 0, 0, 0

Q: And the “RIF1-BRCA1 PLA foci per nucleus, mean” value ([1]; Fig S4G (repeat), HU 4mM 24hr)?
A: 7.828

Q: What about the “RIF1-BRCA1 PLA foci per nucleus, median” value ([1]; Fig S4G (repeat), HU 4mM 24hr) of the same molecule?
A: 6

Q: What about the “RIF1-BRCA1 PLA foci per nucleus, mean” value ([1]; Fig S4J, HU 4mM 24hr) of the same molecule?
A: 7.107

Q: What about the “RIF1-BRCA1 PLA foci per nucleus, median” value ([1]; Fig S4J, HU 4mM 24hr) of the same molecule?
A: 0, 5, 5

Q: And the “RIF1-BRCA1 PLA foci” value ([1]; HU 3 h)?
A: observable

Q: And the “RIF1-BRCA1 PLA foci” value ([1]; HU 24 h)?
A: significantly increased

Q: What about the “proportion of cells containing RAD51 foci” value (RAD51 foci) of the same molecule?
A: greatly increased

Q: What about the “chromatin-bound RPA” value (RPA) of the same molecule?
A: both increased upon HU treatment
